Experimental data reported in EPA's ToxValDB 9.5 (doi:10.2903/j.efsa.2013.3147).

Columns and labels:
Canidae = settings: oral, Dog Other, clinical chemistry

With `COc1cc(C)c(C(=O)c2c(OC)ncc(Cl)c2C)c(OC)c1OC` [Pyriofenone] the LD50 (Rattus norvegicus; acute, oral, mortality) was greater than 2000 mg/kg-day, the NOAEL (Rattus norvegicus; chronic, duration: 2 years, hematological) was 7.25 mg/kg-day and the NOAEL (Rattus norvegicus; reproduction developmental, hematological) was 64.1 mg/kg-day. For the same compound, the NOAEL (Rattus norvegicus; subchronic, duration: 90 days, oral, organ weight) was 17.9 mg/kg-day, the LC50 (Colinus virginianus; acute, oral, diet, mortality) was greater than 980 mg/kg-day and the LD50 (Colinus virginianus; acute, oral, mortality) was greater than 2000 mg/kg-day. For the same compound, the NOAEL (Colinus virginianus; reproduction developmental, reproduction) was 94 mg/kg-day, the NOAEL (Canidae; chronic, duration: 1 years) was 13.7 mg/kg-day and the NOAEL (Canidae; subchronic, duration: 90 days) was 15 mg/kg-day. It also gave an NOAEL (Anas platyrhynchos; reproductive, reproduction) of 119 mg/kg-day and an LC50 (Anas platyrhynchos; short-term, oral, feed, mortality) greater than 1290 mg/kg-day.
